Results from patent US6686350B1, “Cell adhesion inhibitors” (Biogen, Inc., priority 1996, dated 2004).

Molecular target: IIb/IIIa (Homo sapiens, UniProt P05106+P08514)
Experiment: IIb/IIIa inhibitory activity (receptor-ligand binding or platelet aggregation)
Conditions: qualitative statement
From the text: In a basic embodiment, therefore, one skilled in the art first identifies a compound having IIb/IIIa inhibitory activity. Compounds having IIb/IIIa inhibitory activity are well known to those skilled in the art, and are readily available, see, e.g., Table 2 and the references incorporated herein in the Background of the Invention. For purposes of this invention, one skilled in the art may use any of these known compounds. Alternatively, one may determine in assays known to those skilled in the art whether a particular compound has IIB/IIIa activity. If the assay is positive, then the scaffold will be useful in the present invention. Assays for IIb/IIIa inhibitory activity are well known in the art. […] (WO 093/00095, specifically incorporated herein by reference.) Additionally, the aforementioned binding to ligands can be assessed by one skilled in the art in a platelet aggregation assay.

Chain of IIb/IIIa (P08514 32-887 limits assumed): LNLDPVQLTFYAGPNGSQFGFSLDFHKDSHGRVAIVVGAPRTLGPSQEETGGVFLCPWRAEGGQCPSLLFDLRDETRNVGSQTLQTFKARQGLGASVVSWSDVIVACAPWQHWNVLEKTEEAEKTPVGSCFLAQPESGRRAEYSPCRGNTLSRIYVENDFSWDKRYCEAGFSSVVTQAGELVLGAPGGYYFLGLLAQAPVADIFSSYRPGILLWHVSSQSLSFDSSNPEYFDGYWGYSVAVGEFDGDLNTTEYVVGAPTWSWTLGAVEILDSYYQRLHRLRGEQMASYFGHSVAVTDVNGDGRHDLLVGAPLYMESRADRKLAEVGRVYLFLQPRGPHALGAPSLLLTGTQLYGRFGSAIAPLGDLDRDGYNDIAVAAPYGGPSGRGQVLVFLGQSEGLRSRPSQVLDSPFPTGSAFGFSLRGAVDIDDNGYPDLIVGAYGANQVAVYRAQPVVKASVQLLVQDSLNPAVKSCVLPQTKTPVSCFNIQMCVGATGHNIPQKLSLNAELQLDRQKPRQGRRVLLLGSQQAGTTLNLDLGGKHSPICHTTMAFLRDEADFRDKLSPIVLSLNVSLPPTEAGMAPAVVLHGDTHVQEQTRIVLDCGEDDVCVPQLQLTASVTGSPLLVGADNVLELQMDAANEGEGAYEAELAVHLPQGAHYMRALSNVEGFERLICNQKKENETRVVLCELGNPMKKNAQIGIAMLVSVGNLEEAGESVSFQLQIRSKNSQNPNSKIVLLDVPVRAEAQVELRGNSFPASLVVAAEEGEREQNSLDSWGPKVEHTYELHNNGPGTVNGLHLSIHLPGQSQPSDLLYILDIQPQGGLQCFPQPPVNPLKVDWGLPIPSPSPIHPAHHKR
Chain of IIb/IIIa (P08514 891-1039 limits assumed): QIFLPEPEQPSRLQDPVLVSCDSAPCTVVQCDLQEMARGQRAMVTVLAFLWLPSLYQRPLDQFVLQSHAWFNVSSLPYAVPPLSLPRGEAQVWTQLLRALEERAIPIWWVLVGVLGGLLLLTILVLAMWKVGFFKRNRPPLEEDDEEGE
Chain of IIb/IIIa (P05106 27-788): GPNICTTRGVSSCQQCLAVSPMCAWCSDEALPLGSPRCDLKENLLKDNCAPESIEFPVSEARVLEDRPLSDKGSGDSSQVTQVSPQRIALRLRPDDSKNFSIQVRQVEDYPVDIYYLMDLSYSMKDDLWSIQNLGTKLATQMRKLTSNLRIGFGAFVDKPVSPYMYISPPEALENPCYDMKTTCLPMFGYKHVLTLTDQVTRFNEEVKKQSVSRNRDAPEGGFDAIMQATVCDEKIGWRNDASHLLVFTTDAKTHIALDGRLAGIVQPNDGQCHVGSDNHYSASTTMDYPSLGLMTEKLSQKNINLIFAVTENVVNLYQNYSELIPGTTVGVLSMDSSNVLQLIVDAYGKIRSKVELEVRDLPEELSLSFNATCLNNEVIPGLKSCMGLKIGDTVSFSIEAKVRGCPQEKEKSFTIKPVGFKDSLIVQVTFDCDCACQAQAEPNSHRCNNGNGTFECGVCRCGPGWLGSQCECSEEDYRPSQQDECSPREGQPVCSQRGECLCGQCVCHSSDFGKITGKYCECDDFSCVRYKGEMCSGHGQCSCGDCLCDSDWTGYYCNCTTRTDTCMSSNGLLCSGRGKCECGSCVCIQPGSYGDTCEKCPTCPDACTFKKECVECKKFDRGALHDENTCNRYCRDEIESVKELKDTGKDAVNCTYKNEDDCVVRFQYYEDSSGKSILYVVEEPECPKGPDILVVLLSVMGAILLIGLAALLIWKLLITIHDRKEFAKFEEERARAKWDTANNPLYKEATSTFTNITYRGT

| Compound | IIb/IIIa inhibitory activity |
| --- | --- |
| CN(CC(=O)N1CCC(C2CCNCC2)CC1)C(=O)CN(CCC(=O)O)C(=O)c1ccccc1 [Compound B] | potent IIB/IIIa inhibitor |

System: not given
Experiment: not given
Conditions: not given

| Compound | melting point [°C] |
| --- | --- |
| COCCC(=O)N(CCC(=O)O)CC(=O)N(CCC(C)C)CC(=O)Nc1ccc(NC(=O)Nc2ccccc2C)cc1 [AY44] | 164 to 166 |

Molecular target: T1, VLA-4 (Homo sapiens, UniProt P05556+P13612)
T1 construct: endogenous in cells; host or cells: Jurkat cells
T1 sequence (P13612 34-1032): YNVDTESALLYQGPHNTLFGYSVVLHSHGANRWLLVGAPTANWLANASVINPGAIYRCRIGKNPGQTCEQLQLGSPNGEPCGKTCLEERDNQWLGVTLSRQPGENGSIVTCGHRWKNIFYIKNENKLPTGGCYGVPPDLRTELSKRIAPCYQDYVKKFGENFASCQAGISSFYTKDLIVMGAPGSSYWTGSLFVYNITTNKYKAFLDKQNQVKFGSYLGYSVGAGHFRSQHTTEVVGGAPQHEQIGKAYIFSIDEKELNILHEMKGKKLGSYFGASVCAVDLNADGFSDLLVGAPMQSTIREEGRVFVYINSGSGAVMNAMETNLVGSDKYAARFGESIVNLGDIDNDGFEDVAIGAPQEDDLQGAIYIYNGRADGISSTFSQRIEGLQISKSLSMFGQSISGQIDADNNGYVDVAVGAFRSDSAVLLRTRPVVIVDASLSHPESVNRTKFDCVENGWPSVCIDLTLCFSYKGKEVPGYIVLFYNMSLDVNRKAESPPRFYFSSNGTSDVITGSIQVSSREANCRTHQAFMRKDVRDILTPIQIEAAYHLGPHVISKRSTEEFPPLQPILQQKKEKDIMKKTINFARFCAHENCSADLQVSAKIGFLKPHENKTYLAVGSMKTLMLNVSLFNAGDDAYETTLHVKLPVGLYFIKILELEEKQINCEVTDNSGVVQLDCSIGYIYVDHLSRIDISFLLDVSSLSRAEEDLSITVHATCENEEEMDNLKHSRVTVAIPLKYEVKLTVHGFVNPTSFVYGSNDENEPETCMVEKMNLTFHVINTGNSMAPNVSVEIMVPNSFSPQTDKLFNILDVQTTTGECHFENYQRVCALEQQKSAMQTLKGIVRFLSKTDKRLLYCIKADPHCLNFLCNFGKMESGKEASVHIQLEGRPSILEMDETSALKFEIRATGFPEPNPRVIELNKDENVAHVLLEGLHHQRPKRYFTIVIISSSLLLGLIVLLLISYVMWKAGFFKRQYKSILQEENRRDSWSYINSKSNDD
T1 sequence (P05556 21-798): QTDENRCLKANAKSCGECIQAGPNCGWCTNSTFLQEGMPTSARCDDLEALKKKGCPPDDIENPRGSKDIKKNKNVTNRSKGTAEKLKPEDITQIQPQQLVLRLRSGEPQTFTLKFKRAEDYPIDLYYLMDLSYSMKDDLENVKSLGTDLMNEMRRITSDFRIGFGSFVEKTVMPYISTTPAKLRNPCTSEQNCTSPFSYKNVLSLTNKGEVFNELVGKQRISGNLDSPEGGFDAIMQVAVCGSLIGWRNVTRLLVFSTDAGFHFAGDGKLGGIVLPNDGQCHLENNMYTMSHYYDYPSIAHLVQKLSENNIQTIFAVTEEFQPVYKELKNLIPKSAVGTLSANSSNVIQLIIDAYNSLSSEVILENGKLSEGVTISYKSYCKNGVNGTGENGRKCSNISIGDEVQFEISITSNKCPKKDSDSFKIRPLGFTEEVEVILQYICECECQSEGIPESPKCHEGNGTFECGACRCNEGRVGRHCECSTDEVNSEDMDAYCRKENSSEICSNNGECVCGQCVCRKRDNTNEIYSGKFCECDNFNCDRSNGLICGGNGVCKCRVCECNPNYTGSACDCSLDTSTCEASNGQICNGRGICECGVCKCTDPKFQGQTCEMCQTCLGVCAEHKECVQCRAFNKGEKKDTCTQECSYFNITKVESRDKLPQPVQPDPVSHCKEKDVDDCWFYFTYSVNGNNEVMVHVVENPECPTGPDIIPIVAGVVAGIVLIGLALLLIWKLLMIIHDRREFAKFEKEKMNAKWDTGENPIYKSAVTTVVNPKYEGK
Experiment: VLA-4 direct binding assay (VCAM-IgG alkaline phosphatase conjugate binding to Jurkat cells)
Conditions: Table 1, Structure-Activity; assay and unit inferred; read-out: Act
From the text: A direct binding assay may also be employed to quantitate the inhibitory activity of the compounds of this invention. (“DBA”) In direct binding assays, for example, a VCAM-IgG fusion protein containing the first two immunoglobulin domains of VCAM (D1D2) attached above the hinge region of an IgG1 molecule (“VCAM 2D-IgG”), is conjugated to a marker enzyme, such as alkaline phosphatase (“AP”). The synthesis of this VCAM-IgG fusion is described in PCT publication WO 90/13300, the disclosure of which is herein incorporated by reference. The conjugation of that fusion to a marker enzyme can be achieved by cross-linking methods well-known in the art.
The VCAM-IgG enzyme conjugate is then placed in the wells of a multi-well filtration plate, such as that contained in the Millipore Multiscreen Assay System (Millipore Corp., Bedford, Mass.). Varying concentrations of the test inhibitory compound are then added to the wells followed by addition of VLA-4-expressing cells. The cells, compound and VCAM-IgG enzyme conjugate are mixed together and allowed to incubate at room temperature.
Following incubation, the wells are vacuum drained, leaving behind the cells and any bound VCAM. Quantitation of bound VCAM is determined by adding an appropriate calorimetric substrate for the enzyme conjugated to VCAM-IgG and determining the amount of reaction product. Decreased reaction product indicates increased binding inhibitory activity. The protocol is described more specifically below:
1. Block a 96 well Millipore Multiscreen Assay System filtration plate^1 with 200:l/well of blocking buffer (1×Phosphate Buffered Saline, 0.1%Tween 20, 1%BSA) for at least 1 hour at room temperature.
2. Drain the plate with the vacuum manifold, and wash with 200 μl/well of assay buffer (Tris Buffered Saline, 0.1% BSA, 2 mM glucose, 10 mM HEPES, pH 7.5) draining the plate in between. Repeat twice. Then blot the plate bottom on paper to remove excess buffer.
3. Prepare a 4 μg/ml VCAMIg-AP solution (Alkaline phosphatase coupled to VCAMIg) in assay buffer and filter with a 0.2:low protein binding syringe filter (Gelman Sciences #4454). From this stock, prepare a 0.4 μg/ml working solution of VCAMIg-AP in assay buffer. Add 25:l of 0.4 μg/ml VCAMIg-AP to every well.
5. Prepare dilutions of compounds to be tested in assay buffer. Concentrations should be 4× the desired final concentration and run in triplicate. Add 25 μl of the compound dilutions to designated wells.
7. Jurkat cells are centrifuged to remove cell culture media and washed once in assay buffer. Resuspend the washed Jurkat cells to a concentration of 8×10^6/ml in assay buffer containing 2 mM MnCl2. Pipeting the mixture up and down to ensure a uniform cell suspension. Add 50:l of cell suspension to each well except the NSB wells.
8. Gently tap the sides of the plate to mix well contents. Incubate the plate for 60 minutes at room temperature (RT).
9. Place the plate on the vacuum manifold to drain the well contents. Wash twice with 100 μl/well of wash buffer (assay buffer containing 1 mM MnCl2). Drain the plate and blot on paper towels.
10. Add 10 mg/ml of 4-Nitro phenyl phosphate to Substrate buffer (0.1M glycine, 1 mM ZnCl2, 1 mM MgCl2, pH 10.5). Add 100 μl/well and incubate for exactly 30 minutes at RT.
11. To stop the reaction, add 100 μl/well of 3N NaOH.
12. Read the 96-well plate in a Molecular Devices ELISA platereader at 405 nm. Analyze data with SoftMax software.

| Compound | IC50 [nM] |
| --- | --- |
| Cc1ccccc1NC(=O)Nc1ccc(NC(=O)[C@@H]2CCCN2C(=O)NCCCC(=O)O)cc1 [CX2] | 8940 |
| Cc1ccccc1NC(=O)Nc1ccc(NC(=O)CN(CCC(C)C)C(=O)CN(CCC(=O)O)C(=O)COc2ccccc2)cc1 [AX34] | 92 |
| Cc1ccccc1NC(=O)Nc1ccc(NC(=O)CN(CCC(C)C)C(=O)CN(CCC(=O)O)C(=O)COc2ccccc2)cc1 [AX25] | 246 |
| COCC(C)N1C(=O)CN(CCC(=O)O)C(=O)c2cc(NC(=O)Cc3ccc(NC(=O)Nc4ccccc4C)cc3)ccc21 (stereo not drawn) [BX54] | 128 |
| Cc1ccccc1NC(=O)Nc1ccc(NC(=O)CC(CC(C)C)C(=O)N[C@@H](CC(=O)O)CN2CCOCC2)cc1 (stereo partly drawn) [SX7] | 5980 |
| CN1C(=O)CN(CCC(=O)O)C(=O)c2cc(NC(=O)Cc3ccc(NC(=O)c4c[nH]c5ccccc45)cc3)ccc21 [BX64] | 24 |
| Cc1ccccc1NC(=O)Nc1ccc(NC(=O)CN(CCC(C)C)C(=O)CN(CCC(=O)O)C(=O)CBr)cc1 [AX36] | 63.2 |
| Cc1ccccc1NC(=O)Nc1ccc(CC(=O)Nc2ccc3c(c2)C(=O)N(CCC(=O)O)CC(=O)N3C2CCCCC2)cc1 [BX40] | 438 |
| Cc1ccccc1NC(=O)Nc1ccc(NC(=O)[C@@H]2CCCN2C(=O)CN(CCC(=O)O)C(=O)c2ccccc2)cc1 [AX35] | 85 |
| Cc1ccccc1NC(=O)Nc1ccc(CC(=O)Nc2cc(OCCCC(=O)O)ccc2C(C)C)cc1 [RX10] | 2040 |
| CC(C)CN(CC(=O)Nc1ccc(NC(=O)Nc2ccccc2)cc1)C(=O)CN(CCC(=O)O)C(=O)c1ccccc1 [AX28] | 150 |
| Cc1ccccc1NC(=O)Nc1ccc(CC(=O)Nc2ccc3c(c2)C(=O)N(CCC(=O)O)C(C)C(=O)N3C)cc1 (stereo not drawn) [BX38] | 550 |
| COc1ccc(C(CC(=O)O)NC(=O)[C@@H](CC(=O)Nc2ccc(COc3ccccc3C)cc2)CC(C)C)cc1OC (stereo partly drawn) [SX31] | 680 |
| C=CC[C@H](CC(=O)O)NC(=O)C(C)CC(=O)Nc1ccc(NC(=O)Nc2ccccc2C)cc1 (stereo partly drawn) [SX54] | 58.5 |
| Cc1ccccc1NC(=O)Nc1ccc(CC(=O)Nc2ccc3c(c2)CN(CCC(=O)O)C(=O)CN3CCC(=O)O)cc1 [BX71] | 28.5 |
| Cc1ccccc1NC(=O)Nc1ccc(CC(=O)NCc2cccc(OCC(=O)O)c2)cc1 [RX11] | 1140 |
| COc1cccc(C(=O)N(CCC(=O)O)CC(=O)N(CCC(C)C)CC(=O)Nc2ccc(NC(=O)c3c[nH]c4ccccc34)cc2)c1 [AX26] | 240 |
| Cc1ccccc1NC(=O)Nc1ccc(CC(=O)Nc2ccc3c(c2)C(=O)N(C(C)CC(=O)O)CC(=O)N3C)cc1 (stereo not drawn) [BX67] | 62.5 |
| Cc1ccccc1NC(=O)Nc1ccc(CC(=O)Nc2ccc3c(c2)C(=O)N(CCC(=O)O)CC(=O)N3CCC(=O)O)cc1 [BX39] | 480 |
| CSCCCN(CC(=O)Nc1ccccc1)C(=O)CN(CCC(=O)O)C(=O)c1ccccc1 [AX6] | 13500 |
| COc1cccc(C(=O)N(CCC(=O)O)CC(=O)N(CCC(C)C)CC(=O)Nc2ccc3c(c2)C(=O)CCCC3)c1 [AX3] | 15300 |
| Cc1ccccc1NC(=O)Nc1ccc(CC(=O)Nc2cc(OCCCC(=O)O)cc(OCCC(C)C)c2)cc1 [RX16] | 574 |
| Cc1ccccc1NC(=O)Nc1ccc(CC(=O)Nc2ccc(C(=O)O)c(OCCCC(=O)O)c2)cc1 [RX17] | 406 |
| COc1cccc(C(=O)N(CCC(=O)O)CC(=O)N(CCC(C)C)CC(=O)Nc2ccc(CC(=O)N3CCc4ccccc43)cc2)c1 [AX21] | 761 |
| COc1ccc([C@H](CC(=O)O)NC(=O)C(C)CC(=O)Nc2ccc(NC(=O)Nc3ccccc3)cc2)cc1OC (stereo partly drawn) [SX53] | 65 |
| COc1ccc(C(CC(=O)O)NC(=O)C(CC(=O)Nc2ccc(NC(=O)Nc3ccccc3C)cc2)NS(C)(=O)=O)cc1OC (stereo not drawn) [SX47] | 196 |
| COc1cccc(C(=O)N(CCC(=O)O)CC(=O)N(CCC(C)C)CC(=O)Nc2cccc(OCCOc3ccccc3)c2)c1 [AX13] | 3160 |
| Cc1ccccc1NC(=O)Nc1ccc(NC(=O)[C@@H]2CSCN2C(=O)CN(CCC(=O)O)C(=O)c2ccccc2)cc1 [AX39] | 60 |
